From paper PMC11743672, “Characterization of the ligand-binding properties of odorant-binding protein 38 from Riptortus pedestris when interacting with soybean volatiles” (Frontiers in Physiology, 2025)
Read-outs that look alike come from different tables or passages of the source.

Biological target: RpedOBP38 (Riptortus pedestris, UniProt A0A2Z4HQ26)
Experiment: Fluorescence competitive binding assay (1-NPN displacement)
Details: for IC50: 2 μM recombinant RpedOBP38 and 1-NPN, PBS pH 7.4, three replicates
Description: Recombinant RpedOBP38 binding to putative chemical ligands was characterized with a microplate reader (BioTek Synergy H1, United States). Fluorescence intensity values at the excitation wavelength of 337 nm and a maximum fluorescence emission wavelength of 450 nm were plotted against the free concentration of ligand for the measurement of dissociation constants, selecting candidate ligands from among 36 volatile compounds that included 11 green leaf volatiles ([Chen et al., 2018]; [Guo and Wang, 2019]; [Cheng et al., 2020]; [Hong et al., 2022]; [Tang et al., 2023]; [Zhu et al., 2023]), 11 soybean volatiles ([Wang et al., 2019a]; [Zhu et al., 2022]), 10 repellent activity volatiles ([Zhang et al., 2013]; [Zhang et al., 2014]), and 4 aggregation pheromone compounds ([Leal et al., 1995]; [Yasuda et al., 2007]). HPLC-grade methanol was used for the dissolution of the probe N-phenyl-1-naphthylamine (1-NPN) and all ligands. The ability of RpedOBP38 to bind 1-NPN was assessed by using 10 mM PBS (pH 7.4) to prepare a 2 μM purified protein solution, titrating with 1 mM 1-NPN in methanol to prepare final concentrations from 2–20 μM. RpedOBP38 binding to each ligand was evaluated in a solution consisting of 2 μM purified protein and 1-NPN, followed by titration through the addition of ligands until no further decrease in the fluorescence intensity was observed. Ligands were independently replicated three times, and dissociation constants for each ligand were measured as follows: Ki = [IC50]/(1 + [1-NPN]/K1-NPN), where IC50 denotes the ligand concentration when the fluorescence intensity is half of the initial value [1-NPN] is the free 1-NPN concentration, and K1-NPN is the dissociation constant for the RpedOBP38/1-NPN complex ([Campanacci et al., 2001]).

[1] = Ki = [IC50]/(1 + [1-NPN]/K1-NPN), 2 μM protein and 1-NPN, Ki > 40 considered weak binding
[2] = values as quoted in running text

RpedOBP38, sequence (A0A2Z4HQ26 entry or part of it): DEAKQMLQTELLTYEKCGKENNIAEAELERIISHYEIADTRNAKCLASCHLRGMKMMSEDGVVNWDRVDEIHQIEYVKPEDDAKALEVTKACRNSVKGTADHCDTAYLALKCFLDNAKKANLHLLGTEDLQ

Structure (SMILES) | IC50 [µM] | Ki [1] [µM] | Ki [µM] | Ki [2] [µM]
CC1=CCC2CC1C2(C)C (stereo not drawn) [(−)-α-pinene] | > 40 | > 40 |  | 
C=C(C)[C@H]1CC=C(C)C(=O)C1 [(+)-carvone] | > 40 | > 40 |  | 
CC1=CC[C@](O)(C(C)C)CC1 [(+) -4-terpineol] | 18.7 ± 0.428 |  | 14 ± 0.321 | 14
CC1=CC[C@@](O)(C(C)C)CC1 [(−) -4-terpineol] | > 40 | > 40 |  | 
C=C(C)C1CC=C(C)C(=O)C1 (single isomer, unassigned; (-)) [(−)-carvone] | 36.2 ± 5.17 |  | 27.2 ± 3.88 | 27.2
CCCCCCCCCCCCCCOC(=O)C(C)C [myristyl isobutyrate] | > 40 | > 40 |  | 
